Like-named read-outs stand apart in the source and are kept apart here.
Columns and labels:
Assay type in all cases: cell-based
[1] = test system: Enterococcus faecalis (EFA); experiment: MIC, two-fold agar dilution (CLSI), clinical isolates
In short: (§1)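 Test samples were assayed by the CLSI-recommended two-fold agar dilution method, and the minimum inhibitory concentration against each tested strain was determined.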

[2] = test system: Enterococcus faecium (EFM); experiment: as above
In short: as §1

[3] = test system: Escherichia coli (including ESBLs, non-ESBLs); experiment: as above
In short: as §1

[4] = test system: Moraxella catarrhalis (BCA); experiment: as above
In short: as §1

[5] = test system: Streptococcus pneoumoniae (SPN); experiment: as above
In short: as §1

[6] = test system: methicillin-resistant Staphylococcus aureus (MRSA); experiment: as above
In short: as §1

[7] = test system: methicillin-resistant Staphylococcus epidermidis (MRSE); experiment: as above
In short: as §1

[8] = test system: methicillin-sensitive Staphylococcus aureus (MSSA); experiment: as above
In short: as §1

[9] = test system: methicillin-sensitive Staphylococcus epidermidis (MSSE); experiment: as above
In short: as §1

[10] = test system: HCT-116 colorectal cancer cell line; experiment: CCK-8 proliferation inhibition; details: Homo sapiens, 72 hours, CCK-8; for inhibition at 30 µM: HCT-116, 72 h, concentration of 30 μM
In short: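 Cells were plated overnight at 2000 cells/well, then compound in culture medium was added at a range of final concentrations. After 72 hours in a CO2 incubator, medium was replaced with 1:10 CCK-8 solution for the read-out.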

[11] = test system: A549 lung cancer cell line; experiment: CCK-8 proliferation inhibition; details: Homo sapiens
In short: (§2)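 Plating at 2000 cells/well, then incubation overnight at 37° C. Next, a range of compound concentrations for 72 hours (control 1‰ DMSO). Finally, medium decanted and CCK-8 diluted 1:10 added.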

[12] = test system: BEL-7402 liver cancer cell line; experiment: CCK-8 proliferation inhibition
In short: as §2

[13] = test system: MGC-803 gastric cancer cell line; experiment: CCK-8 proliferation inhibition; details: Homo sapiens
In short: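 Proliferation was measured with 1:10 diluted CCK-8 after a 72-hour incubation with the inhibitors at various final concentrations, using 1‰ DMSO as the control. Cells were plated at 2000 per well. Culture media contained 10% newborn bovine serum: 1640 for Jurkat and MGC-803, F12 for PC3, DMEM high glucose for MCF-7.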

In the case of `CCCC[C@H](CC(=O)NO)C(=O)N1CC2(CC2)C[C@H]1C(=O)Nc1cc(C(C)(C)C)on1` [Example 55], the Anti-bacterial activity (MIC), strain EFA 15-1 ([1]; clinical isolate EFA 15-1) is reported as > 32 µg/mL, the Anti-bacterial activity (MIC), strain EFA 15-2 ([1]; clinical isolate EFA 15-2) is reported as > 32 µg/mL and the Anti-bacterial activity (MIC), strain EFA 15-3 ([1]; clinical isolate EFA 15-3) is reported as > 32 µg/mL. The Anti-bacterial activity (MIC), strain EFA 15-4 ([1]; clinical isolate EFA 15-4) was > 32 µg/mL, the Anti-bacterial activity (MIC), strain EFA 15-5 ([1]; clinical isolate EFA 15-5) was > 32 µg/mL and the Anti-bacterial activity (MIC), strain EFA 15-6 ([1]; clinical isolate EFA 15-6) was > 32 µg/mL. For the same molecule, the Anti-bacterial activity (MIC), strain EFA 15-9 ([1]; clinical isolate EFA 15-9) was 8 µg/mL, the Anti-bacterial activity (MIC), strain EFM 15-1 ([2]; clinical isolate EFM 15-1) was > 32 µg/mL and the Anti-bacterial activity (MIC), strain EFM 15-2 ([2]; clinical isolate EFM 15-2) was > 32 µg/mL. The Anti-bacterial activity (MIC), strain EFM 15-3 ([2]; clinical isolate EFM 15-3) was > 32 µg/mL, the Anti-bacterial activity (MIC), strain EFM 15-4 ([2]; clinical isolate EFM 15-4) was > 32 µg/mL and the Anti-bacterial activity (MIC), strain EFM 15-5 ([2]; clinical isolate EFM 15-5) was 0.5 µg/mL. For the same molecule, the Anti-bacterial activity (MIC), strain EFM 15-6 ([2]; clinical isolate EFM 15-6) was 2 µg/mL, the Anti-bacterial activity (MIC), strain ECO+ 15-1 ([3]; clinical isolate ECO+ 15-1) was 32 µg/mL and the Anti-bacterial activity (MIC), strain ECO+ 15-2 ([3]; clinical isolate ECO+ 15-2) was > 32 µg/mL. For the same molecule, the Anti-bacterial activity (MIC), strain ECO+ 15-3 ([3]; clinical isolate ECO+ 15-3) was > 32 µg/mL, the Anti-bacterial activity (MIC), strain ECO+ 15-4 ([3]; clinical isolate ECO+ 15-4) was 1 µg/mL and the Anti-bacterial activity (MIC), strain ECO− 15-1 ([3]; clinical isolate ECO− 15-1) was > 32 µg/mL. For the same molecule, the Anti-bacterial activity (MIC), strain ECO− 15-2 ([3]; clinical isolate ECO− 15-2) was > 32 µg/mL, the Anti-bacterial activity (MIC), strain ECO− 15-3 ([3]; clinical isolate ECO− 15-3) was > 32 µg/mL and the Anti-bacterial activity (MIC), strain ECO− 15-4 ([3]; clinical isolate ECO− 15-4) was > 32 µg/mL. The Anti-bacterial activity (MIC), strain BCA 14-1 ([4]; clinical isolate BCA 14-1) was 4 µg/mL, the Anti-bacterial activity (MIC), strain BCA 14-4 ([4]; clinical isolate BCA 14-4) was 4 µg/mL and the Anti-bacterial activity (MIC), strain BCA 14-5 ([4]; clinical isolate BCA 14-5) was 1 µg/mL. It also gave an Anti-bacterial activity (MIC), strain BCA 14-6 ([4]; clinical isolate BCA 14-6) of 2 µg/mL, an Anti-bacterial activity (MIC), strain BCA 14-7 ([4]; clinical isolate BCA 14-7) of 4 µg/mL and an Anti-bacterial activity (MIC), strain BCA 14-8 ([4]; clinical isolate BCA 14-8) of 4 µg/mL. The Anti-bacterial activity (MIC), strain BCA 14-10 ([4]; clinical isolate BCA 14-10) was 4 µg/mL, the Anti-bacterial activity (MIC), strain SPN 16-2 ([5]; clinical isolate SPN 16-2) was 1 µg/mL and the Anti-bacterial activity (MIC), strain SPN 16-4 ([5]; clinical isolate SPN 16-4) was 1 µg/mL. The Anti-bacterial activity (MIC), strain MRSA 15-1 ([6]; clinical isolate MRSA 15-1) was 0.25 µg/mL, the Anti-bacterial activity (MIC), strain MRSA 15-2 ([6]; clinical isolate MRSA 15-2) was 0.5 µg/mL and the Anti-bacterial activity (MIC), strain MRSA 15-3 ([6]; clinical isolate MRSA 15-3) was 0.5 µg/mL. For the same molecule, the Anti-bacterial activity (MIC), strain MRSA 15-4 ([6]; clinical isolate MRSA 15-4) was 0.5 µg/mL, the Anti-bacterial activity (MIC), strain MRSE 15-1 ([7]; clinical isolate MRSE 15-1) was 1 µg/mL and the Anti-bacterial activity (MIC), strain MRSE 15-2 ([7]; clinical isolate MRSE 15-2) was 1 µg/mL. The Anti-bacterial activity (MIC), strain MRSE 15-3 ([7]; clinical isolate MRSE 15-3) was 1 µg/mL, the Anti-bacterial activity (MIC), strain MRSE 15-7 ([7]; clinical isolate MRSE 15-7) was 1 µg/mL and the Anti-bacterial activity (MIC), strain MSSA 15-3 ([8]; clinical isolate MSSA 15-3) was 0.5 µg/mL. For the same molecule, the Anti-bacterial activity (MIC), strain MSSA 15-4 ([8]; clinical isolate MSSA 15-4) was 1 µg/mL, the Anti-bacterial activity (MIC), strain MSSA 15-5 ([8]; clinical isolate MSSA 15-5) was 1 µg/mL and the Anti-bacterial activity (MIC), strain MSSA 15-6 ([8]; clinical isolate MSSA 15-6) was > 32 µg/mL. It also gave an Anti-bacterial activity (MIC), strain MSSE 15-3 ([9]; clinical isolate MSSE 15-3) of 1 µg/mL, an Anti-bacterial activity (MIC), strain MSSE 15-4 ([9]; clinical isolate MSSE 15-4) of 1 µg/mL and an Anti-bacterial activity (MIC), strain MSSE 15-5 ([9]; clinical isolate MSSE 15-5) of 1 µg/mL. The Anti-bacterial activity (MIC), strain MSSE 15-6 ([9]; clinical isolate MSSE 15-6) was 1 µg/mL, the inhibition at 30 µM ([10]; Table 5, read-out: Inhibition of proliferation, Colorectal cancer HCT116) was ≥ 30% and the inhibition at 30 µM ([10]; read-out: HCT116 inhibition rate/%) was 30%. It also gave an IC50 ([10]; HCT-116) of 15.2 µM, an inhibition at 30 µM ([11]; A549, 72 h, concentration of 30 μM) of 49% and an IC50 ([11]; A549, 72 hours) of 12.1 µM. For the same molecule, the inhibition at 30 µM ([12]; Homo sapiens, Bel-7402, 72 h, concentration of 30 μM) was > 50%, the IC50 ([12]; Homo sapiens, Bel-7402, 72 hours) was 25.9 µM and the “Inhibition of proliferation, Liver cancer BEL-7402” value ([12]; concentration of 30 μM, 72 hours, 30 µM) was 59%. It also gave an inhibition at 30 µM ([13]; MGC-803, 72 h, concentration of 30 μM) of 33% and an IC50 ([13]; MGC-803, 72 hours) of 29.5 µM.
